Measurements reported in US7632839B2, “Mitotic kinesin inhibitors” (Merck & Co. Inc., priority 2005, dated 2009).

Target: T1, human KSP motor domain (KSP(367H)) (Homo sapiens, UniProt P52732)
T1 construct: were used to amplify the motor domain and the neck linker region; made in house; host or cells: E. coli BL21 (DE3), pRSETa
T1 sequence (P52732 18-359 limits assumed): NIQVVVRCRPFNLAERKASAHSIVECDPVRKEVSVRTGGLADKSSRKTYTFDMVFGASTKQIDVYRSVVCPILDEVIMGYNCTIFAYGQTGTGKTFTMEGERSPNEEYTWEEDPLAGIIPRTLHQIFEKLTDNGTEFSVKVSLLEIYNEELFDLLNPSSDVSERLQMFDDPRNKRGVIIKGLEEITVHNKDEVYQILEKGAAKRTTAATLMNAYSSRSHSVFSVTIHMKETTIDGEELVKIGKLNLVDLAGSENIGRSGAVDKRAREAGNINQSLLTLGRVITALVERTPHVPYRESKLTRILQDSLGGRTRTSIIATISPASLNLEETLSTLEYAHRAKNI
Experiment: Kinesin ATPase In Vitro Assay
Type: biochemical
Settings: KSP motor domain with microtubules, 1 mM ATP, 23° C.
From the text: I. Kinesin ATPase In Vitro Assay
Cloning and Expression of Human Poly-Histidine Tagged KSP Motor Domain (KSP(367H))
Plasmids for the expression of the human KSP motor domain construct were cloned by PCR using a pBluescript full length human KSP construct (Blangy et al., Cell, vol. 83, pp 1159-1169, 1995) as a template. The N-terminal primer 5′-[…] (SEQ.ID.NO.: 1) and the C-terminal primer 5′-[…] […] (SEQ.ID.NO.: 2) were used to amplify the motor domain and the neck linker region. The PCR products were digested with AseI and XhoI, ligated into the NdeI/XhoI digestion product of pRSETa (Invitrogen) and transformed into E. coli BL21 (DE3).
Cells were grown at 37° C. to an OD600 of 0.5. […]
The kinesin motor domain is incubated with microtubules, 1 mM ATP (1:1 MgCl2: Na-ATP), and compound at 23° C. in buffer containing 80 mM K-HEPES (pH 7.0), 1 mM EGTA, 1 mM DTT, 1 mM MgCl2, and 50 mM KCl. […] Free phosphate from the ATP hydrolysis reaction is measured via a quinaldine red/ammonium molybdate assay by adding 150 μl of quench C buffer containing a 2:1 ratio of quench A:quench B. Quench A contains 0.1 mg/ml quinaldine red and 0.14% polyvinyl alcohol; quench B contains 12.3 mM ammonium molybdate tetrahydrate in 1.15 M sulfuric acid. The reaction is incubated for 10 minutes at 23° C., and the absorbance of the phospho-molybdate complex is measured at 540 nm.

- IC50: ≤ 50 µM
Structure (SMILES): Cc1ccc(C(=O)N(CC(F)CN)C(c2nc3cnccc3c(=O)n2Cc2ccccc2)C(C)C)cc1 [Compound I-13, N-(3-amino-2-(R,S)-fluoropropyl)-N-[1-(3-benzyl-4-oxo-3,4-dihydropyrido[3,4-d]pyrimidin-2-yl)-2-(R,S)-methylpropyl]-4-methylbenzamide]
